# Data reported in US7767659B2, “Synthesis of naturally occurring ecteinascidins and related compounds” (Pharma Mar, S.A., priority 2002, dated 2010).
# Columns and labels:
# A-549 = test: cells; conditions: A549, SRB, 48 hours exposure
# Experimental: (§1) This form of the assay employs 96 well cell culture microplates of 9 mm diameter (Faircloth, 1988; Mosmann, 1983). Most of the cell lines are obtained from American Type Culture Collection (ATCC) derived from different human cancer types.
# (§2) Cells are maintained in RPMI 1640 10% FBS, supplemented with 0.1 g/l penicillin and 0.1 g/l streptomycin sulfate and then incubated at 37° C., 5% CO2 and 98% humidity. For the experiments, cells were harvested from subconfluent cultures using trypsin and resuspended in fresh medium before plating.
# (§3) Cells are seeded in 96 well microtiter plates, at 5×10^3 cells per well in aliquots of 195 μl medium, and they are allowed to attach to the plate surface by growing in drug free medium for 18 hours. Afterward, samples are added in aliquots of 5 μl in a ranging from 10 to 10^−8 μg/ml, dissolved in DMSO/EtOH/PBS (0.5:0.5:99). After 48 hours exposure, the antitumor effect are measured by the SRB methodology: cells are fixed by adding 50 μl of cold 50% (wt/vol) trichloroacetic acid (TCA) and incubating for 60 minutes at 4° C. Plates are washed with deionized water and dried. One hundred μl of SRB solution (0.4% wt/vol in 1% acetic acid) is added to each microtiter well and incubated for 10 minutes at room temperature. Unbound SRB is removed by washing with 1% acetic acid. Plates are air dried and bound stain is solubilzed with Tris buffer. Optical densities are read on a automated spectrophotometric plate reader at a single wavelength of 490 nm.
# (§4) The values for mean +/− SD of data from triplicate wells are calculated. Some parameters for cellular responses can be calculated: GI=growth inhibition, TGI=total growth inhibition (cytostatic effect) and LC=cell killing (cytotoxic effect).
# HT-29 = test: cells; conditions: HT29, SRB, 48 hours exposure
# Experimental: as §1, §2, §3, §4
# LoVo = test: cells; conditions: LOVO, SRB, 48 hours exposure
# Experimental: as §1, §2, §3, §4
# DU-145 = test: Inhibition of cells growth by colorimetric assay (SRB); conditions: DU145, SRB, 48 hours exposure
# Experimental: as §1, §2, §3, §4
# HeLa-APL = test: as above; conditions: HELA-APL, SRB, 48 hours exposure
# Experimental: as §1, §2, §3, §4
# HeLa = test: as above; conditions: HELA, SRB, 48 hours exposure
# Experimental: as §1, §2, §3, §4
# IGROV-1 = test: as above; conditions: IGROV, SRB, 48 hours exposure
# Experimental: as §1, §2, §3, §4
# IGROV-ET = test: as above; conditions: IGROV-ET, SRB, 48 hours exposure
# Experimental: as §1, §2, §3, §4
# K-562 = test: as above; conditions: K562, SRB, 48 hours exposure
# Experimental: as §1, §2, §3, §4
# LNCaP = test: as above; conditions: LNCAP, SRB, 48 hours exposure
# Experimental: as §1, §2, §3, §4
# LoVo-Dox = test: as above; conditions: LOVO-DOX, SRB, 48 hours exposure
# Experimental: as §1, §2, §3, §4
# PANC-1 = test: as above; conditions: PANC-1, SRB, 48 hours exposure
# Experimental: as §1, §2, §3, §4
# SK-BR-3 = test: as above; conditions: SK-BR3, SRB, 48 hours exposure
# Experimental: as §1, §2, §3, §4
# SK-MEL-28 = test: as above; conditions: MEL-28, SRB, 48 hours exposure
# Experimental: as §1, §2, §3, §4
smiles,measurement,setting,value
"COC1=C(C)C(=O)C2=C(C1=O)C1C3C4SCC(NC(C)=O)C(=O)OCC(c5c6c(c(C)c(OC(C)=O)c54)OCO6)N3C(O)C(C2)N1C (stereo not shown) [ET-637-quinone, ecteinascidin 637 quinone]",A549 TGI,A-549,1.09E−08 Molar
same,GI50,A-549; read-out: A549 GI50,4.42 nM
same,CC50,A-549; read-out: A549 LC50,51.5 nM
same,HT29 TGI,HT-29,7.78E−09 Molar
same,GI50,HT-29; read-out: HT29 GI50,3.32 nM
same,CC50,HT-29; read-out: HT29 LC50,2260 nM
same,LOVO TGI,LoVo,8.51E−09 Molar
same,GI50,LoVo; read-out: LOVO GI50,3.98 nM
same,CC50,LoVo; read-out: LOVO LC50,6080 nM
same,DU145 TGI,DU-145,6.30E−09 Molar
same,GI50,DU-145; read-out: DU145 GI50,3.74 nM
same,CC50,DU-145; read-out: DU145 LC50,15.3 nM
same,HELA-APL TGI,HeLa-APL,5.12E−09 Molar
same,GI50,HeLa-APL; read-out: HELA-APL GI50,2.39 nM
same,CC50,HeLa-APL; read-out: HELA-APL LC50,10.9 nM
same,HELA TGI,HeLa,4.88E−09 Molar
same,GI50,HeLa; read-out: HELA GI50,2.24 nM
same,CC50,HeLa; read-out: HELA LC50,10.6 nM
same,IGROV TGI,IGROV-1,5.80E−09 Molar
same,GI50,IGROV-1; read-out: IGROV GI50,2.76 nM
same,CC50,IGROV-1; read-out: IGROV LC50,12.1 nM
same,IGROV-ET TGI,IGROV-ET,6.91E−08 Molar
same,GI50,IGROV-ET; read-out: IGROV-ET GI50,34.2 nM
same,CC50,IGROV-ET; read-out: IGROV-ET LC50,139 nM
same,K562 TGI,K-562,1.97E−09 Molar
same,CC50,K-562; read-out: K562 LC50,14.4 nM
same,LNCAP TGI,LNCaP,3.64E−09 Molar
same,GI50,LNCaP; read-out: LNCAP GI50,1.78 nM
same,CC50,LNCaP; read-out: LNCAP LC50,7.44 nM
same,LOVO-DOX TGI,LoVo-Dox,9.62E−07 Molar
same,GI50,LoVo-Dox; read-out: LOVO-DOX GI50,262 nM
same,CC50,LoVo-Dox; read-out: LOVO-DOX LC50,90 nM
same,PANC-1 TGI,PANC-1,8.24E−09 Molar
same,GI50,PANC-1; read-out: PANC-1 GI50,3.72 nM
same,CC50,PANC-1; read-out: PANC-1 LC50,3.42 nM
same,SK-BR3 TGI,SK-BR-3,2.67E−09 Molar
same,CC50,SK-BR-3; read-out: SK-BR3 LC50,8.51 nM
same,MEL-28 TGI,SK-MEL-28,5.34E−09 Molar
same,GI50,SK-MEL-28; read-out: MEL-28 GI50,2.96 nM
same,CC50,SK-MEL-28; read-out: MEL-28 LC50,9.61 nM
